From patent US20210038607A1, “OXADIAZOLYLTHIOPHENE DERIVATIVES USEFUL AS HISTONE DEACETYLASE INHIBITORS” (Karus Therapeutics Limited, priority 2018, published 2021)

Experiments:
Human HDAC5 = target: T1, Human HDAC5 (Homo sapiens, UniProt Q9UQL6); test: HDAC5 biochemical assay, class IIa-specific substrate; conditions: read-out: HDAC Isoform IC50 (nM) 5
T1 construct: full length with C-terminal His tag, MW=51.1 kDa; His (C); host or cells: baculovirus expression system
How it was run: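 Two-step fluorogenic read-out: deacetylated trifluoroacetyl-lysine AMC substrate (50 μM) digested by developer, measured at Ex/Em 360/460. Deacetylation step: 0.05 ng/ul His-tagged full-length baculoviral enzyme with compound, 30 min, room temperature, pH 8.0 Tris with 1 mg/mL BSA and 1% DMSO.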

Recombinant human HDAC6 = target: T2, Recombinant human HDAC6 (Homo sapiens, UniProt Q9UBN7); test: HDAC6 biochemical assay, AMC-labeled peptide substrate; conditions: HDAC6; read-out: HDAC Isoform IC50 (nM) 6
T2 construct: full length, MW=159 kDa; GST (N); host or cells: Sf9 insect cells (baculovirus)
T2 sequence (Q9UBN7 1-1215): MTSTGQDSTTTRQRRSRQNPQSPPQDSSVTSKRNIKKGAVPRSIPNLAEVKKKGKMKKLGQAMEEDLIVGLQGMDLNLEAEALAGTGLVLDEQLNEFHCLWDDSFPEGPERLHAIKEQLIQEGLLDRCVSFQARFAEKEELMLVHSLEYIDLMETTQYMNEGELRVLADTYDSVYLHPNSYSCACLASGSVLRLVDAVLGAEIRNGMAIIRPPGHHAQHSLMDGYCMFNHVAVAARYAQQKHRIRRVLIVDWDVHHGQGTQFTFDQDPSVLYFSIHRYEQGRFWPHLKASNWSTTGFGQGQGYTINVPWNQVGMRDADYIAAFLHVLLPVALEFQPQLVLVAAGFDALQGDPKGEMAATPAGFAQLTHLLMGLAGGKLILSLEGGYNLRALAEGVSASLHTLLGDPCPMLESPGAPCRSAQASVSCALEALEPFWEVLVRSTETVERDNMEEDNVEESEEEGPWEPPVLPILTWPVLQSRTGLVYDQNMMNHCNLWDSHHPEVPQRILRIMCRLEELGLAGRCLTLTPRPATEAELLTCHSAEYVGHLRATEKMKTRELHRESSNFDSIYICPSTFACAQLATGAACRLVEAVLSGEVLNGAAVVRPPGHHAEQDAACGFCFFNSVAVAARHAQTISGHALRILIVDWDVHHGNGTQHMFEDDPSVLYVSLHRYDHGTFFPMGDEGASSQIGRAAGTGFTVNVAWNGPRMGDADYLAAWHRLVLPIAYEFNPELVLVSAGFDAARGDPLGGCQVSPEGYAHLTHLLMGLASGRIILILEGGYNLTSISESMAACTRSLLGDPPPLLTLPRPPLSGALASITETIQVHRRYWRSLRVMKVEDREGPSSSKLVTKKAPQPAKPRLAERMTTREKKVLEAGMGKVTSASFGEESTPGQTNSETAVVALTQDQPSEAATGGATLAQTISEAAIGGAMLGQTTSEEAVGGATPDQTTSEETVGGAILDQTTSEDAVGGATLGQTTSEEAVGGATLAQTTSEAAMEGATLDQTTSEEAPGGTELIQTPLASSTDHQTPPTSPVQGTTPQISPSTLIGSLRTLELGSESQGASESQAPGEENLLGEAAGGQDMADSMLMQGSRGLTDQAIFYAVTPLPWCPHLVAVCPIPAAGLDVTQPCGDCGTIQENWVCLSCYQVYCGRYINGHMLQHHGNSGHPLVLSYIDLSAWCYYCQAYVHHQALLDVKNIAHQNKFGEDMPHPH
How it was run: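 Two-step fluorogenic read-out: enzyme deacetylates 50 μM RHKK(Ac)AMC for 1 h at 30° C in pH 8.0 Tris buffer with BSA and 1% DMSO, then developer cleavage gives signal at Ex 360/Em 460. Enzyme: 0.3 ng/ul recombinant full-length human HDAC6, GST-tagged, Sf9-expressed.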

Human HDAC7 = target: T3, Human HDAC7 (Homo sapiens, UniProt Q8WUI4); test: HDAC7 biochemical assay, class IIa-specific substrate; conditions: read-out: HDAC Isoform IC50 (nM) 7
T3 construct: (a.a. 518-end) with N-terminal GST tag; GST (N); host or cells: baculovirus expression system
T3 sequence (Q8WUI4 518-952 limits assumed): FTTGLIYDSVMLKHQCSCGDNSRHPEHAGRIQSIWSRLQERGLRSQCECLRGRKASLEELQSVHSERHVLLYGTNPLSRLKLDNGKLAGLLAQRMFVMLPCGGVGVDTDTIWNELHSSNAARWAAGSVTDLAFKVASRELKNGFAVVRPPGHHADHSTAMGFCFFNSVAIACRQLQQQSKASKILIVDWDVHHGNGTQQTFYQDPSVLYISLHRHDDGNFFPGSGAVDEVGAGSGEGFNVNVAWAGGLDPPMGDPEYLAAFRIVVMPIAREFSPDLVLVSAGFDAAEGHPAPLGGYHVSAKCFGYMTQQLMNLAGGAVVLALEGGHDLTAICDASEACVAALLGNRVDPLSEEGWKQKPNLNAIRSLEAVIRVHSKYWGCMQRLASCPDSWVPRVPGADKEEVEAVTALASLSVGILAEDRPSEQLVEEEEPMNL
How it was run: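 Two-step fluorogenic readout: class IIa-selective trifluoroacetyl-lysine AMC substrate (50 μM) deacetylated by N-terminal GST-HDAC7 fragment (0.001 ng/ul), then digested by developer, Ex/Em 360/460. Reaction: 30 min, room temperature, Tris-HCl pH 8.0, NaCl/KCl/MgCl2, 1 mg/mL BSA, 1% DMSO.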

Human HDAC9 = target: T4, Human HDAC9 (Homo sapiens, UniProt Q9UKV0); test: HDAC9 biochemical assay, class IIa-specific substrate; conditions: read-out: HDAC Isoform IC50 (nM) 9
T4 construct: amino acids 604-1066 with C-terminal His tag; His (C); host or cells: baculovirus expression system
T4 sequence (Q9UKV0 604-1066 isoform Q9UKV0-5): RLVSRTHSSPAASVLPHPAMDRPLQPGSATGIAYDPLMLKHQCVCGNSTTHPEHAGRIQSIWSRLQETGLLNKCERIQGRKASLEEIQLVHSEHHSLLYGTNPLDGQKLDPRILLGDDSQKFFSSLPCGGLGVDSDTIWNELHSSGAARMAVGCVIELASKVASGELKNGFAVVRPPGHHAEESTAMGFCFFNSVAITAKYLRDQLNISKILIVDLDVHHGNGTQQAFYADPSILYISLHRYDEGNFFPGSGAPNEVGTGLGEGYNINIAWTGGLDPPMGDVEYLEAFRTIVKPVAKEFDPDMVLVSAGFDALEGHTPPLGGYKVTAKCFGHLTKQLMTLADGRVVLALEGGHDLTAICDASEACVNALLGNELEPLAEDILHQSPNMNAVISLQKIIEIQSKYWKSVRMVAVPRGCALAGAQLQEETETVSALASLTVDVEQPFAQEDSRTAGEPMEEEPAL
How it was run: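 HDAC9 residues 604-1066 (C-terminal His tag, baculovirus-expressed) at 0.06 ng/ul with 50 μM class IIa substrate Boc-Lys(trifluoroacetyl)-AMC in Tris-HCl pH 8.0 buffer with BSA and 1% DMSO. 30 min at room temperature, then developer added; fluorescence read at 360/460 nm Ex/Em.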

Human HDAC1 = target: T5, Human HDAC1 (Homo sapiens, UniProt Q13547); test: HDAC1 biochemical assay, AMC-labeled peptide substrate; conditions: read-out: HDAC Isoform IC50 (nM) 1
T5 construct: full length with C-terminal His-tag and C-terminal FLAG-tag; His (C); FLAG (C); host or cells: baculovirus expression system
T5 sequence (Q13547 whole entry, canonical isoform): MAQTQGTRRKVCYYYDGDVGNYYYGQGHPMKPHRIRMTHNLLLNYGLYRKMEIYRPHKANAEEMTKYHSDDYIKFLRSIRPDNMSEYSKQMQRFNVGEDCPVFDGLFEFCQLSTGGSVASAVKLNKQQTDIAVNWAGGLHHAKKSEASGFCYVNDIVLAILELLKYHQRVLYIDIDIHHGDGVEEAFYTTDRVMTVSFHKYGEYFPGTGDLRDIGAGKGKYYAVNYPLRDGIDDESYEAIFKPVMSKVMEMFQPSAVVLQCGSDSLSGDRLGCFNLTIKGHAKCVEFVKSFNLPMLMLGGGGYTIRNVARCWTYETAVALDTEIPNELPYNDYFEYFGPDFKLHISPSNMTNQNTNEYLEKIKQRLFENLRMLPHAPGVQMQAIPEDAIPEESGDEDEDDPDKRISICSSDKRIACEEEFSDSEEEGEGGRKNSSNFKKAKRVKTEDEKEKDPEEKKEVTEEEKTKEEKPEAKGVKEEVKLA
How it was run: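 Two-step fluorogenic read: HDAC1 deacetylates 50 μM acetyl-lysine AMC peptide RHKK(Ac)AMC for 1 h at 30° C (pH 8.0, 1% DMSO, with compound), then developer digests the product for fluorescence at Ex/Em 360/460. Enzyme is full-length human, His/FLAG-tagged, insect-cell expressed, at 0.3 ng/ul.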

Human HDAC4 = target: T6, Human HDAC4 (Homo sapiens, UniProt P56524); test: HDAC4 biochemical assay, class IIa-specific substrate; conditions: read-out: HDAC Isoform IC50 (nM) 4
T6 construct: amino acids 627-1085 with N-terminal GST tag; GST (N); host or cells: baculovirus expression system
T6 sequence (P56524 627-1084 limits assumed): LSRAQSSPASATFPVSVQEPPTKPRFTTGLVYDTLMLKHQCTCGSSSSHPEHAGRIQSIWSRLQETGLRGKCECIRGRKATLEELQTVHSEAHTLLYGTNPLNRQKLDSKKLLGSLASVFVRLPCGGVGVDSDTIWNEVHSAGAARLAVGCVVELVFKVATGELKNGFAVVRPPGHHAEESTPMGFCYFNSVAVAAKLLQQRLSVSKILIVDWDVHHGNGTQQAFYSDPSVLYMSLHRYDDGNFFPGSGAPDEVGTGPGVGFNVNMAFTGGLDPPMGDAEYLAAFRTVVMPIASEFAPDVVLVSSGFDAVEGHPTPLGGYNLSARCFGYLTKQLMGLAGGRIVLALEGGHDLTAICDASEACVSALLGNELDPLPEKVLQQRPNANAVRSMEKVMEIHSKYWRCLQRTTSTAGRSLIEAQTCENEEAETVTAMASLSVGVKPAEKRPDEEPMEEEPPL
How it was run: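 Two-step fluorogenic read-out: deacetylated BOC-Lys(trifluoroacetyl)-AMC (50 μM) was digested by developer and measured at Ex/Em 360/460. Deacetylation by 0.004 ng/ul HDAC4 (aa 627-1085, N-terminal GST) ran 30 min at room temperature, pH 8.0 Tris buffer, 1 mg/mL BSA, 1% DMSO.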

T1 sequence (Q9UQL6 656-1122 limits assumed): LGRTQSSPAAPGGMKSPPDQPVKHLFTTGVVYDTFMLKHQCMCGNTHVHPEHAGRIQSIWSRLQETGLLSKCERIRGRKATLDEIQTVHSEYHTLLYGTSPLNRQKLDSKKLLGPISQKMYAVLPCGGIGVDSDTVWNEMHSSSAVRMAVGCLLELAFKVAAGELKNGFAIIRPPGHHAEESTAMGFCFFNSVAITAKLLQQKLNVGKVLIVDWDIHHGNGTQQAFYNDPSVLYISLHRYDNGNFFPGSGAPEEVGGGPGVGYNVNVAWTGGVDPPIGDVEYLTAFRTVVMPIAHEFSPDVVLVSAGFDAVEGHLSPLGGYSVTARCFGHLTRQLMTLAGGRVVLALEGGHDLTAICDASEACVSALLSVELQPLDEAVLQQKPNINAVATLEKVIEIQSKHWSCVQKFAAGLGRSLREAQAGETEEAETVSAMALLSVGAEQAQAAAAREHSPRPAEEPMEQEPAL

Row | SMILES | IC50 (Human HDAC5) | IC50 (Recombinant human HDAC6) | IC50 (Human HDAC7) | IC50 (Human HDAC9) | IC50 (Human HDAC1) | IC50 (Human HDAC4)
1 | FC(F)(F)c1nccc(N(Cc2ccc(-c3noc(C(F)(F)F)n3)s2)c2cnccn2)n1 [Example CD, N-(Pyrazin-2-yl)-2-(trifluoromethyl)-N-({5-[5-(trifluoromethyl)-1,2,4-oxadiazol-3-yl]thiophen-2-yl}methyl)pyrimidin-4-amine] | ≤ 1000 nM | ≤ 10000 nM | ≤ 1000 nM | ≤ 1000 nM | > 10000 nM | ≤ 1000 nM
2 | FC(F)(F)c1nc(-c2ccc(CN(c3cnccn3)c3cc(N4CCOCC4)ncn3)s2)no1 [Example CL, 6-(Morpholin-4-yl)-N-(pyrazin-2-yl)-N-({5-[5-(trifluoromethyl)-1,2,4-oxadiazol-3-yl]thiophen-2-yl}methyl)pyrimidin-4-amine] | ≤ 10000 nM | ≤ 10000 nM | ≤ 10000 nM | ≤ 10000 nM | > 10000 nM | ≤ 10000 nM
3 | COc1nccc(N(Cc2ccc(-c3noc(C(F)(F)F)n3)s2)c2cnccn2)n1 [Example CB, 2-Methoxy-N-(pyrazin-2-yl)-N-({5-[5-(trifluoromethyl)-1,2,4-oxadiazol-3-yl]thiophen-2-yl}methyl)pyrimidin-4-amine] | ≤ 1000 nM | ≤ 1000 nM | ≤ 1000 nM | ≤ 10000 nM | > 10000 nM | ≤ 500 nM
4 | Cc1nc(N2CCCC2)cc(N(Cc2ccc(-c3noc(C(F)(F)F)n3)s2)c2cnccn2)n1 [Example CQ, 2-Methyl-N-(pyrazin-2-yl)-6-(pyrrolidin-1-yl)-N-({5-[5-(trifluoromethyl)-1,2,4-oxadiazol-3-yl]thiophen-2-yl}methyl)pyrimidin-4-amine] | ≤ 10000 nM | ≤ 10000 nM | ≤ 10000 nM | ≤ 10000 nM | > 10000 nM | ≤ 10000 nM
5 | FC(F)(F)c1nc(-c2ccc(CN(c3cnccn3)c3cncnc3C(F)(F)F)s2)no1 [Example DA, N-(Pyrazin-2-yl)-4-(trifluoromethyl)-N-({5-[5-(trifluoromethyl)-1,2,4-oxadiazol-3-yl]thiophen-2-yl}methyl)pyrimidin-5-amine] | ≤ 10000 nM | ≤ 10000 nM | ≤ 10000 nM | ≤ 10000 nM | > 10000 nM | ≤ 1000 nM
6 | Cn1cc(-c2ccc(N(Cc3ccc(-c4noc(C(F)(F)F)n4)s3)c3cnccn3)nn2)cn1 [Example DO, 6-(1-Methyl-1H-pyrazol-4-yl)-N-(pyrazin-2-yl)-N-({5-[5-(trifluoromethyl)-1,2,4-oxadiazol-3-yl]thiophen-2-yl}methyl)pyridazin-3-amine] | ≤ 1000 nM | ≤ 500 nM | ≤ 1000 nM | ≤ 10000 nM | ≤ 10000 nM | ≤ 1000 nM
7 | Cc1ccnc(N(Cc2ccc(-c3noc(C(F)(F)F)n3)s2)c2cnccn2)n1 [Example AT, 4-Methyl-N-(pyrazin-2-yl)-N-({5-[5-(trifluoromethyl)-1,2,4-oxadiazol-3-yl]thiophen-2-yl}methyl)pyrimidin-2-amine] | ≤ 10000 nM | ≤ 10000 nM | ≤ 10000 nM | ≤ 10000 nM | > 10000 nM | ≤ 10000 nM

Further lines, results first:

Row | IC50 (Human HDAC5) | IC50 (Recombinant human HDAC6) | IC50 (Human HDAC7) | IC50 (Human HDAC9) | IC50 (Human HDAC1) | IC50 (Human HDAC4) | SMILES
8 | ≤ 10000 nM | ≤ 10000 nM | ≤ 10000 nM | ≤ 10000 nM | > 10000 nM | ≤ 10000 nM | Cn1ccc2c(N(Cc3ccc(-c4noc(C(F)(F)F)n4)s3)c3cnccn3)ncnc21 [Example CM, N-{7-Methyl-7H-pyrrolo[2,3-d]pyrimidin-4-yl}-N-({5-[5-(trifluoromethyl)-1,2,4-oxadiazol-3-yl]thiophen-2-yl}methyl)pyrazin-2-amine]
9 | ≤ 10000 nM | ≤ 10000 nM | ≤ 10000 nM | ≤ 10000 nM | > 10000 nM | ≤ 10000 nM | COc1ccnc(N(Cc2ccc(-c3noc(C(F)(F)F)n3)s2)c2cnccn2)n1 [Example AU, 4-Methoxy-N-(pyrazin-2-yl)-N-({5-[5-(trifluoromethyl)-1,2,4-oxadiazol-3-yl]thiophen-2-yl}methyl)pyrimidin-2-amine]
10 | ≤ 500 nM | ≤ 10000 nM | ≤ 1000 nM | ≤ 10000 nM | > 10000 nM | ≤ 500 nM | CC(c1ccc(-c2noc(C(F)(F)F)n2)s1)N(c1cnccn1)c1cnccn1 (stereo not drawn) [Example BB, N-(Pyrazin-2-yl)-N-(1-{5-[5-(trifluoromethyl)-1,2,4-oxadiazol-3-yl]thiophen-2-yl}ethyl)pyrazin-2-amine]
11 | ≤ 10000 nM | > 10000 nM | ≤ 10000 nM | ≤ 10000 nM | > 10000 nM | ≤ 10000 nM | FC(F)(F)c1nc(-c2ccc(CN(c3ccc(N4CCCC4)nc3)c3cnccn3)s2)no1 [Example AP, N-[6-(Pyrrolidin-1-yl)pyridin-3-yl]-N-({5-[5-(trifluoromethyl)-1,2,4-oxadiazol-3-yl]thiophen-2-yl}methyl)pyrazin-2-amine]
12 | ≤ 10000 nM | ≤ 10000 nM | ≤ 10000 nM | ≤ 10000 nM | ≤ 10000 nM | ≤ 10000 nM | FC(F)(F)c1nc(-c2ccc(CN(c3ccc(N4CCOCC4)cn3)c3cnccn3)s2)no1 [Example AD, N-[5-(Morpholin-4-yl)pyridin-2-yl]-N-({5-[5-(trifluoromethyl)-1,2,4-oxadiazol-3-yl]thiophen-2-yl}methyl)pyrazin-2-amine]
